# Test results from ChEMBL document CHEMBL1201862, “PubChem BioAssay data set” (2004).
#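 Exposure lasted 48 hours, with cells grown in 96-well plates and compounds tested at five concentrations. The concentration for 50% growth inhibition is given as GI50.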 Active and inactive are the calls of the source. Cut-off read from the data, not from the text of the source: active = GI50 up to about 1.1 µM and inactive = higher.
# Columns and labels:
# Experiment in all cases: NCI anticancer screen, dose series, 48 h
# 786-0 = test system: 786-0
# A498 = test system: A498
# A549 = test system: A549
# ACHN = test system: ACHN
# CAKI-1 = test system: CAKI-1
# CCRF-CEM = test system: CCRF-CEM
# COLO 205 = test system: COLO 205
# DLD-1 = test system: DLD-1
# DMS-114 = test system: DMS-114
# DMS-273 = test system: DMS-273
# EKVX = test system: EKVX
# HCC 2998 = test system: HCC 2998
# HCT-116 = test system: HCT-116
# HCT-15 = test system: HCT-15
# HL-60 = test system: HL-60
# HOP-18 = test system: HOP-18
# HOP-62 = test system: HOP-62
# HOP-92 = test system: HOP-92
# HT-29 = test system: HT-29
# IGROV-1 = test system: IGROV-1
# K562 = test system: K562
# KM-20L2 = test system: KM-20L2
# KM12 = test system: KM12
# LOX IMVI = test system: LOX IMVI
# LXFL 529 = test system: LXFL 529
# M14 = test system: M14
# M19-MEL = test system: M19-MEL
# MOLT-4 = test system: MOLT-4
# Malme-3M = test system: Malme-3M
# NCI-H226 = test system: NCI-H226
# NCI-H23 = test system: NCI-H23
# NCI-H460 = test system: NCI-H460
# NCI-H522 = test system: NCI-H522
# OVCAR-3 = test system: OVCAR-3
# OVCAR-4 = test system: OVCAR-4
# OVCAR-5 = test system: OVCAR-5
# OVCAR-8 = test system: OVCAR-8
# RPMI-8226 = test system: RPMI-8226
# RXF 393 = test system: RXF 393
# SF-268 = test system: SF-268
# SF-295 = test system: SF-295
# SF-539 = test system: SF-539
# SK-MEL-28 = test system: SK-MEL-28
# SK-MEL-2 = test system: SK-MEL-2
# SK-MEL-5 = test system: SK-MEL-5
# SK-OV-3 = test system: SK-OV-3
# SN12C = test system: SN12C
# SNB-19 = test system: SNB-19
# SNB-75 = test system: SNB-75
# SNB-78 = test system: SNB-78
# SR = test system: SR
# SW-620 = test system: SW-620
# TK-10 = test system: TK-10
# U-251 = test system: U-251
# UACC-257 = test system: UACC-257
# UACC-62 = test system: UACC-62
# UO-31 = test system: UO-31
# XF498 = test system: XF498
compound,measurement,setting,value
COC(=O)/C(=N\O)C(C(=O)C=C(C)C)C(=O)C(=O)Nc1ccccc1C (stereo not drawn),GI50,786-0,> 100 µM (inactive)
same,GI50,A498,> 100 µM (inactive)
same,GI50,A549,> 100 µM (inactive)
same,GI50,ACHN,> 100 µM (inactive)
same,GI50,CAKI-1,> 100 µM (inactive)
same,GI50,CCRF-CEM,> 100 µM (inactive)
same,GI50,COLO 205,> 100 µM (inactive)
same,GI50,DLD-1,> 100 µM (inactive)
same,GI50,DMS-114,> 100 µM (inactive)
same,GI50,DMS-273,> 100 µM (inactive)
same,GI50,EKVX,> 100 µM (inactive)
same,GI50,HCC 2998,> 100 µM (inactive)
same,GI50,HCT-116,> 100 µM (inactive)
same,GI50,HCT-15,> 100 µM
same,GI50,HL-60,> 100 µM (inactive)
same,GI50,HOP-18,> 100 µM (inactive)
same,GI50,HOP-62,> 100 µM (inactive)
same,GI50,HOP-92,> 100 µM (inactive)
same,GI50,HT-29,> 100 µM (inactive)
same,GI50,IGROV-1,> 100 µM (inactive)
same,GI50,K562,> 100 µM (inactive)
same,GI50,KM-20L2,> 100 µM (inactive)
same,GI50,KM12,> 100 µM (inactive)
same,GI50,LOX IMVI,> 100 µM (inactive)
same,GI50,LXFL 529,> 100 µM (inactive)
same,GI50,M14,> 100 µM (inactive)
same,GI50,M19-MEL,> 100 µM (inactive)
same,GI50,MOLT-4,> 100 µM (inactive)
same,GI50,Malme-3M,> 100 µM (inactive)
same,GI50,NCI-H226,> 100 µM (inactive)
same,GI50,NCI-H23,> 100 µM (inactive)
same,GI50,NCI-H460,> 100 µM (inactive)
same,GI50,NCI-H522,> 100 µM (inactive)
same,GI50,OVCAR-3,> 100 µM (inactive)
same,GI50,OVCAR-4,> 100 µM (inactive)
same,GI50,OVCAR-5,> 100 µM (inactive)
same,GI50,OVCAR-8,> 100 µM (inactive)
same,GI50,RPMI-8226,> 100 µM (inactive)
same,GI50,RXF 393,> 100 µM (inactive)
same,GI50,SF-268,> 100 µM (inactive)
same,GI50,SF-295,> 100 µM (inactive)
same,GI50,SF-539,> 100 µM (inactive)
same,GI50,SK-MEL-28,> 100 µM (inactive)
same,GI50,SK-MEL-2,> 100 µM (inactive)
same,GI50,SK-MEL-5,> 100 µM (inactive)
same,GI50,SK-OV-3,> 100 µM (inactive)
same,GI50,SN12C,> 100 µM (inactive)
same,GI50,SNB-19,> 100 µM (inactive)
same,GI50,SNB-75,> 100 µM (inactive)
same,GI50,SNB-78,> 100 µM (inactive)
same,GI50,SR,> 100 µM (inactive)
same,GI50,SW-620,> 100 µM (inactive)
same,GI50,TK-10,> 100 µM (inactive)
same,GI50,U-251,> 100 µM (inactive)
same,GI50,UACC-257,> 100 µM (inactive)
same,GI50,UACC-62,> 100 µM (inactive)
same,GI50,UO-31,> 100 µM (inactive)
same,GI50,XF498,> 100 µM (inactive)
